From US20200277404A1, “COMPOSITIONS AND METHODS FOR REGULATION OF IMMUNE CELL ACTIVATION AND PROLIFERATION” (MONELL CHEMICAL SENSES CENTER, priority 2017, published 2020)

System: bitter receptors (T2Rs)
Assay: Expression of bitter receptors (T2Rs) in Raw264.7 cells treated with LPS or DEX
Assay type: cell-based
Conditions: mouse monocyte/macrophage Raw264.7 cell line, FIG. 4
Protocol: The mouse monocyte/macrophage Raw264.7 cell line was also used to study T2Rs. Raw264.7 cells were treated with lipopolysaccharide (LPS) and dexamethasone (DEX).

Q: lipopolysaccharide [LPS] was tested. Which “expression levels of some bitter receptors (T2Rs)” value did it give?
A: The value was “strongly induced”.
